Assay results as given in article PMC11859928, “Design, Synthesis, and Antiproliferative Activity of Novel Indole/1,2,4-Triazole Hybrids as Tubulin Polymerization Inhibitors” (Pharmaceuticals, 2025).
Like-named read-outs stand apart in the source and are kept apart here.

How the values were obtained:
A549/ATCC = experiment: NCI one-dose assay; format: cell-based; details: Homo sapiens, Non-small cell lung cancer, read-out: Cell growth inhibition %
ACHN = experiment: NCI one-dose assay; format: cell-based; details: Homo sapiens, Renal cancer, read-out: Cell growth inhibition %
COLO 205 = experiment: NCI one-dose assay; format: cell-based; details: Homo sapiens, COLO 205, Colon cancer, read-out: Cell growth inhibition %
EKVX = experiment: NCI one-dose assay; format: cell-based; details: Homo sapiens, Non-small cell lung cancer, read-out: Cell growth inhibition %
HL-60(TB) = experiment: NCI one-dose assay; format: cell-based; details: Homo sapiens, Leukemia, read-out: Cell growth inhibition %
LOX IMVI = experiment: NCI one-dose assay; format: cell-based; details: Homo sapiens, Melanoma, read-out: Cell growth inhibition %
M14 = experiment: NCI one-dose assay; format: cell-based; details: Homo sapiens, M14, Melanoma, read-out: Cell growth inhibition %
MCF7 = experiment: NCI one-dose assay; format: cell-based; details: Homo sapiens, MCF7, Breast cancer, read-out: Cell growth inhibition %
NCI-H226 = experiment: NCI one-dose assay; format: cell-based; details: Homo sapiens, NCI-H226, Non-small cell lung cancer, read-out: Cell growth inhibition %
NCI-H322M = experiment: NCI one-dose assay; format: cell-based; details: Homo sapiens, Non-small cell lung cancer, read-out: Cell growth inhibition %
NCI-H460 = experiment: NCI one-dose assay; format: cell-based; details: Homo sapiens, NCI-H460, Non-small cell lung cancer, read-out: Cell growth inhibition %
NCI-H522 = experiment: NCI one-dose assay; format: cell-based; details: Homo sapiens, NCI-H522, Non-small cell lung cancer, read-out: Cell growth inhibition %
OVCAR-3 = experiment: NCI one-dose assay; format: cell-based; details: Homo sapiens, OVCAR-3, Ovarian cancer, read-out: Cell growth inhibition %
PC-3 = experiment: NCI one-dose assay; format: cell-based; details: Homo sapiens, PC-3, Prostate cancer, read-out: Cell growth inhibition %
RPMI-8226 = experiment: NCI one-dose assay; format: cell-based; details: Homo sapiens, RPMI-8226, Leukemia, read-out: Cell growth inhibition %
SF-268 = experiment: NCI one-dose assay; format: cell-based; details: Homo sapiens, SF-268, CNS cancer, read-out: Cell growth inhibition %
SF-295 = experiment: NCI one-dose assay; format: cell-based; details: Homo sapiens, SF-295, CNS cancer, read-out: Cell growth inhibition %
SK-MEL-28 = experiment: NCI one-dose assay; format: cell-based; details: Homo sapiens, SK-MEL-28, Melanoma, read-out: Cell growth inhibition %
U251 = experiment: NCI one-dose assay; format: cell-based; details: Homo sapiens, U-251, U251, CNS cancer, read-out: Cell growth inhibition %
786-0 = experiment: NCI one-dose assay; format: cell-based, human; details: Homo sapiens, 786-0, 786-0, Renal cancer, read-out: Cell growth inhibition %
Procedure: (§1) The National Cancer Institute (NCI), Bethesda, USA, selected the final compounds 6a–j and 7a–j for in vitro anticancer screening. An initial in vitro single-dose anticancer experiment was performed with the entire NCI 60 cell lines derived from nine tumor subpanel cancer cell lines. The results for each compound were illustrated as a mean graph showing the percentage growth of treated cells compared to untreated control cells (see Supplementary Materials).
(§2) The NCI anticancer screening process has been thoroughly detailed. The Drug Evaluation Branch of the National Cancer Institute in Bethesda, […], USA, established the procedure and conducted the anticancer assay on 60 human tumor cell lines from nine neoplastic cancers.

A498 = experiment: NCI one-dose assay; format: cell-based, human; details: Homo sapiens, A498, A498, Renal cancer, read-out: Cell growth inhibition %
Procedure: as §1, §2

HOP-92 = experiment: NCI one-dose assay; format: cell-based, human; details: Homo sapiens, HOP-92, HOP-92, Non-small cell lung cancer, read-out: Cell growth inhibition %
Procedure: as §1, §2

UO-31 = experiment: NCI one-dose assay; format: cell-based, human; details: Homo sapiens, UO-31, UO-31, Renal cancer, read-out: Cell growth inhibition %
Procedure: as §1, §2

RXF 393 = experiment: NCI one-dose assay; format: cell-based; details: Homo sapiens, RXF 393, Renal cancer, read-out: Cell growth inhibition %
NCI 60 cell lines = experiment: NCI one-dose assay, full panel; format: cell-based, human; details: for inhibition at 10 µM: Homo sapiens
Procedure: as §1, §2

Structure (SMILES)	inhibition at 10 µM (A549/ATCC) [%]	inhibition at 10 µM (ACHN) [%]	inhibition at 10 µM (COLO 205) [%]	inhibition at 10 µM (EKVX) [%]	inhibition at 10 µM (HL-60(TB)) [%]	inhibition at 10 µM (M14) [%]	inhibition at 10 µM (MCF7) [%]	inhibition at 10 µM (NCI-H226) [%]	inhibition at 10 µM (NCI-H322M) [%]	inhibition at 10 µM (NCI-H460) [%]	inhibition at 10 µM (NCI-H522) [%]	inhibition at 10 µM (OVCAR-3) [%]	inhibition at 10 µM (PC-3) [%]	inhibition at 10 µM (RPMI-8226) [%]	inhibition at 10 µM (SF-268) [%]	inhibition at 10 µM (SF-295) [%]	inhibition at 10 µM (SK-MEL-28) [%]	inhibition at 10 µM (U251) [%]	inhibition at 10 µM (786-0) [%]	inhibition at 10 µM (HOP-92) [%]	also measured
O=C(CSc1nnc(-c2c[nH]c3ccccc23)n1-c1ccccc1)c1ccccc1 [Compound 6f, 2-((5-(1H-indol-3-yl)-4-phenyl-4H-1,2,4-triazol-3-yl)thio)-1-phenylethanone]	14.5	39.5	6.63	31.6	12.8	26.4	63.8	95.5	18.8	38.2	28.4	39.2	34.2	18.7	68.3	28	0.04	89.2	70.4	53	inhibition at 10 µM (LOX IMVI): 70.8%; inhibition at 10 µM (A498): -6.16%; inhibition at 10 µM (UO-31): 44.5%
COc1ccc(C(=O)CSc2nnc(-c3c[nH]c4ccccc34)n2-c2ccccc2)cc1 [Compound 6g, 2-((5-(1H-Indol-3-yl)-4-phenyl-4H-1,2,4-triazol-3-yl)thio)-1-(4-methoxyphenyl) Ethenone]	26	77.2	15.2	70.7	18.7	24.3	54.4	99.9	41.6	34.5	54.3	46.4	49.7	27.3	59	63.8	50.3	65.6	54.8	92.1	inhibition at 10 µM (LOX IMVI): 56.5%; inhibition at 10 µM (A498): -11.3%; inhibition at 10 µM (UO-31): 67.4%
O=C(CSc1nnc(-c2c[nH]c3ccccc23)n1-c1ccccc1)c1ccc(Br)cc1 [Compound 6i, 2-((5-(1H-Indol-3-yl)-4-phenyl-4H-1,2,4-triazol-3-yl)thio)-1-(4-bromophenyl) Ethenone]	70.1	62.6	86.5	89.2	55.5	49	46.6	60.9	54.3	65.5	53.7	57.5	53.8	45.6	50.9	66.3	65.1	38.4	17.6	71.9	inhibition at 10 µM (LOX IMVI): 58.2%; inhibition at 10 µM (A498): 64%; inhibition at 10 µM (UO-31): 74%
O=C(CSc1nnc(-c2c[nH]c3ccccc23)n1-c1ccccc1)c1ccc(Cl)cc1 [Compound 6j, 2-((5-(1H-indol-3-yl)-4-phenyl-4H-1,2,4-triazol-3-yl)thio)-1-(4-chlorophenyl) Ethenone]	62.5	42.5	57.4	74.4	11.1	19.4	61.6	82.4	41.3	39.9	33	26.1	39.5	16.8	30.6	45	31.7	69.9	55.1	35	inhibition at 10 µM (LOX IMVI): 84.1%; inhibition at 10 µM (A498): 42.7%; inhibition at 10 µM (UO-31): 45.2%
C=CCn1c(SCC(=NO)c2ccc(OC)cc2)nnc1-c1c[nH]c2ccccc12 [Compound 7b, 2-((4-allyl-5-(1H-indol-3-yl)-4H-1,2,4-triazol-3-yl)thio)-1-(4-methoxyphenyl) Ethanone Oxime]	-9.29	7.56	-11.9	7.49	16.1	2.83	11.3	14.9	-1.52	5.34	8.33	-9.23	14.9	14.9	-0.98	16.6	-3.89	-5.26	0.73	8.91	inhibition at 10 µM (RXF 393): -12.1%; inhibition at 10 µM (UO-31): 19.2%; anticancer activity (in words) (NCI 60 cell lines; across all cell lines, 10 µM): minimal anticancer activity
C=CCn1c(SC/C(=N\O)c2ccc(Br)cc2)nnc1-c1c[nH]c2ccccc12 [Compound 7d, (Z)-2-((4-allyl-5-(1H-indol-3-yl)-4H-1,2,4-triazol-3-yl)thio)-1-(4-bromophenyl) Ethanone Oxime]	9.17	17.9	8.25	25.8	35.7	19.2	17.9	33.6	16.3	19.7	18.5	-3.34	31.6	37.9	4.98	32.5	7.82	5.15	13.4	21	inhibition at 10 µM (RXF 393): 19.3%; inhibition at 10 µM (UO-31): 38.3%; inhibition at 10 µM (NCI 60 cell lines; 60 cell, eleven cell lines, read-out: growth inhibition percentage, range): 34 to 47%
C=CCn1c(SC/C(=N\O)c2ccc(Cl)cc2)nnc1-c1c[nH]c2ccccc12 [Compound 7e, (Z)-2-((4-allyl-5-(1H-indol-3-yl)-4H-1,2,4-triazol-3-yl)thio)-1-(4-chlorophenyl) Ethanone Oxime]	6.38	10.2	0.1	27.1	35	16	13.3	30.4	11.9	24.7	19.5	-7.49	24.4	29.7	-1.1	25	0.08	1.78	11.1	26.5	inhibition at 10 µM (RXF 393): 5.62%; inhibition at 10 µM (UO-31): 39.5%; inhibition at 10 µM (NCI 60 cell lines; HL-60(TB), K-562, MOLT-4, HCT-116, UACC-62, UO-31, T-47D, MDA-MB-468, read-out: growth inhibition percentage, range): 35 to 46.5%
